Holding throughout (type): protein assay
Data set [1] has as its target T1, Monoamine oxidase (Homo sapiens, UniProt P21397+P27338).
T1 sequence (P21397 whole entry): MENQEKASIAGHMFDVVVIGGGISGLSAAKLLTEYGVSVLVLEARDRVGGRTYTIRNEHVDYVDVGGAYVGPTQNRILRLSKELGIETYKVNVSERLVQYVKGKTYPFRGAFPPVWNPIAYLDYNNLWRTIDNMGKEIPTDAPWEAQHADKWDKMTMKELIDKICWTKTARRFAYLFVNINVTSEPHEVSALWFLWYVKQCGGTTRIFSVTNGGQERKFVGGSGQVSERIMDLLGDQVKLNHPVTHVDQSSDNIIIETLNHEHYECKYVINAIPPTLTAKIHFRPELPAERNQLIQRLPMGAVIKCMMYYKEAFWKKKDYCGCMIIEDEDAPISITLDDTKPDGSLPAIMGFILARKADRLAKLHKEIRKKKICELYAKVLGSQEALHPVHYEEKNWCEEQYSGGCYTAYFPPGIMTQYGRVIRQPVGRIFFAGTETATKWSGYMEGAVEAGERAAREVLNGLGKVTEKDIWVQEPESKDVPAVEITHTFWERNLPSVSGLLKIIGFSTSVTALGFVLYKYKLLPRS
T1 sequence (P27338 whole entry): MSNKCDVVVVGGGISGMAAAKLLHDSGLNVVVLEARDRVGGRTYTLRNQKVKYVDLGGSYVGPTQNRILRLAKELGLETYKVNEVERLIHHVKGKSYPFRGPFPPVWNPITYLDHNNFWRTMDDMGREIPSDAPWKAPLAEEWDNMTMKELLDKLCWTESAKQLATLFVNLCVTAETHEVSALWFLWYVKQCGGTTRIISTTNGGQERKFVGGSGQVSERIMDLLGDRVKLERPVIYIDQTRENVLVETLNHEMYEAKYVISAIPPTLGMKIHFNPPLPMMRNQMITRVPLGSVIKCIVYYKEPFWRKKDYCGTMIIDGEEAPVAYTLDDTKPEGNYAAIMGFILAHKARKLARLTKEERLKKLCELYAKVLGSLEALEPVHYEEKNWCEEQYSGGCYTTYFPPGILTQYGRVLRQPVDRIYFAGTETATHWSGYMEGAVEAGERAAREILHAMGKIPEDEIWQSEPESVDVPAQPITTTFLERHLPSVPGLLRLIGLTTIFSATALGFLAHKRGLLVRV
Description: Evaluated for (Ki value) in competition with oxidation of benzylamine.

For data set [2], the target named is T1, Monoamine oxidase. In words: Evaluated for (Ki value) inactivation of Monoamine oxidase at saturation.
In data set [3] the target is T1, Monoamine oxidase. In words: Kinetic parameter (Km value) was determined.
For data set [4], the target named is T1, Monoamine oxidase. In words: Kinetic parameter (Kcat value) was determined.

Take `NC1(Cc2ccccc2)CC1`: the Ki in data set [1] was found to be 51 µM; in data set [2], 480 µM.
`NCC1(c2ccccc2)CC1` returned a Ki in data set [1] of 50 µM. Moreover, the Michaelis constant (Km) in data set [3] turned out to be 40 µM. Besides, the k cat in data set [4] was 1.52 s⁻¹.

The term Km denotes the substrate concentration at which the rate is half of its maximum.

Source of the values: ChEMBL document CHEMBL1123132, “1-Benzylcyclopropylamine and 1-(phenylcyclopropyl)methylamine: an inactivator and a substrate of monoamine oxidase” (J Med Chem, 1985).
